# Measurements from ChEMBL document CHEMBL5728361, “(S)-2-(1-cyclopropylethyl)-5-(4-methyl-2-((6-(2-oxopyrrolidin-1-yl)pyridin-2-yl)amino) thiazol-5-yl)-7-(methylsulfonyl)isoindolin-1-one as a phosphatidylinositol 3-kinase inhibitor” (2021).
# Tests used:
# [1] = (§1) Enzymatic Activity Assay : The activity of recombinant human PI3Kγ ((aa144-1102)-6His) and PI3Kα, β, δ (6-His(p110-p85α)) was determined by measuring the ADP level after phosphorylation of DiC8-PIP2 using a commercially available ADP-Glo™ kit from Promega. The assay was carried out in white low volume 384 well plates in a final volume of 14 μl at R.T. The assay conditions contained the following: 50 mM Tris buffer pH 7.4, 2.1 mM DTT, 3 mM MgCl2, 0.05% CHAPS, 20 μM ATP, 80 μM DiC8-PIP2 and 1.2 nM PI3Kα, β, γ or 0.6 nM PI3Kδ. Potential inhibitors were made up in DMSO and then diluted in the assay to give a final concentration of not exceeding 1% (v/v) DMSO. […] Routinely, inhibitors were pre-incubated with 3 μl of enzyme for 15 min prior to the addition of 2 μl substrate mixture for a further 60 min enzyme reaction. The phosphorylation was stopped with the addition of 3 μl ADP-Glo™ reagent (stop solution) followed by a 40 min incubation. Prior to detection 6 μl of ADP-Glo™ Kinase Detection Reagent was added and the plates were read in a micro plate reader using a Luminescence filter. All additions were followed by a short centrifugation step.
# [2] = molecular target: Phosphatidylinositol 4,5-bisphosphate 3-kinase catalytic subunit alpha isoform (Homo sapiens, UniProt P42336); assay: as §1
# Chain of Phosphatidylinositol 4,5-bisphosphate 3-kinase catalytic subunit alpha isoform (P42336 whole entry, canonical isoform): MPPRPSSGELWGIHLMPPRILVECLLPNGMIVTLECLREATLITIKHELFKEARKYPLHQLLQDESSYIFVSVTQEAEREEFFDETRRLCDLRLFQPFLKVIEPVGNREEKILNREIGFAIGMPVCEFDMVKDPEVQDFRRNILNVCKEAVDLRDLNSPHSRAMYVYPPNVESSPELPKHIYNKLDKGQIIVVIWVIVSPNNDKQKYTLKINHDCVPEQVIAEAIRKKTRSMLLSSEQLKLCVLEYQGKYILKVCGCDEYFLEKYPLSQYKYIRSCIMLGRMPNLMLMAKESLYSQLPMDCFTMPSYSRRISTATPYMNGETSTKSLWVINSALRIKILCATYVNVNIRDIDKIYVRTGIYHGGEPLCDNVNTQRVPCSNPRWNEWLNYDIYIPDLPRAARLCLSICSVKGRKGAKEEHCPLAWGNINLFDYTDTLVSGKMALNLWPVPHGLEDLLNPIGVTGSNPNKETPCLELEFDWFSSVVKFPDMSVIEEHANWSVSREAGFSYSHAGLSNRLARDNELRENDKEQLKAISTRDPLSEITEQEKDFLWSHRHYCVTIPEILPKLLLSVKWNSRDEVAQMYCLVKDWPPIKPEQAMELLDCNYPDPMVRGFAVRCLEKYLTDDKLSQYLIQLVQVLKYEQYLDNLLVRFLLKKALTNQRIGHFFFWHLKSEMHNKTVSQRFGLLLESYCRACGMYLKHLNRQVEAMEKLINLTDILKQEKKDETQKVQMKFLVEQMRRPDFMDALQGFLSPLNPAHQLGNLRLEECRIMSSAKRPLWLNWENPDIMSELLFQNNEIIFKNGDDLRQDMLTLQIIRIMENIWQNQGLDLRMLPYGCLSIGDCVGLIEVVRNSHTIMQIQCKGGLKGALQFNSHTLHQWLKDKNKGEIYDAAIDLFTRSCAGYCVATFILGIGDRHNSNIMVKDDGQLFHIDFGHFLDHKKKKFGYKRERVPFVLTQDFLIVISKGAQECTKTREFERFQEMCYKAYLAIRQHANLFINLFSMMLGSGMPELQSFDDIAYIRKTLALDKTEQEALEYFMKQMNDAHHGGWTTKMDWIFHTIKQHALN
# [3] = molecular target: Phosphatidylinositol 4,5-bisphosphate 3-kinase catalytic subunit beta isoform (Homo sapiens, UniProt P42338); assay: as §1
# Chain of Phosphatidylinositol 4,5-bisphosphate 3-kinase catalytic subunit beta isoform (P42338 whole entry, canonical isoform): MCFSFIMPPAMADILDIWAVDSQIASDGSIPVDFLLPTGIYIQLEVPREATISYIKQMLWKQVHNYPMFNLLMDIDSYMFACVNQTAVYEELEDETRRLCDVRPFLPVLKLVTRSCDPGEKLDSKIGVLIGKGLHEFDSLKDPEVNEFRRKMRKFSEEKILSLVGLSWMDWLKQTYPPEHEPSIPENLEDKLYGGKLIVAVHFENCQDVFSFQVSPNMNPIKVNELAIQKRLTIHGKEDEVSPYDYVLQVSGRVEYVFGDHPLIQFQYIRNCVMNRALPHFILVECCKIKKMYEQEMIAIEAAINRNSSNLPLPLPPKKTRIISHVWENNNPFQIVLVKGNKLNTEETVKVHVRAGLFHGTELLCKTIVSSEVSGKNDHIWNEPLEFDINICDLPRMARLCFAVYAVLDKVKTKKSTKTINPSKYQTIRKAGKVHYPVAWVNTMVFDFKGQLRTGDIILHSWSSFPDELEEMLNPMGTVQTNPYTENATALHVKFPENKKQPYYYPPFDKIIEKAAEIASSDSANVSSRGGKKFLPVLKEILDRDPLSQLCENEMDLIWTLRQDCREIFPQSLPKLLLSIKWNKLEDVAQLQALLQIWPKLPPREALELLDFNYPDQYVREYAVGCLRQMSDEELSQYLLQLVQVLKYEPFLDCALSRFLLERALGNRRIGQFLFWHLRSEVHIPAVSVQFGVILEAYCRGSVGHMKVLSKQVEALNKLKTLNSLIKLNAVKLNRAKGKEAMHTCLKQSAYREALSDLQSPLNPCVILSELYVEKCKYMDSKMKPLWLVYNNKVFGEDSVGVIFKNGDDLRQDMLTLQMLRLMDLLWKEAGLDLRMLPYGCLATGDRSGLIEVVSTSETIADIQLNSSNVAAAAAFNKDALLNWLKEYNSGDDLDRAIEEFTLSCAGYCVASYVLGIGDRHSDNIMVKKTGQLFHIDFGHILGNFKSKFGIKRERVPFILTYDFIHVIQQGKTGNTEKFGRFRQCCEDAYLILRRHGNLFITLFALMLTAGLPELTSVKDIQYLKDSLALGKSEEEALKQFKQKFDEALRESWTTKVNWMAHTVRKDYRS
# [4] = molecular target: T1, Phosphatidylinositol 4,5-bisphosphate 3-kinase catalytic subunit delta isoform (Homo sapiens, UniProt O00329); assay: as §1
# T1 sequence (O00329 whole entry): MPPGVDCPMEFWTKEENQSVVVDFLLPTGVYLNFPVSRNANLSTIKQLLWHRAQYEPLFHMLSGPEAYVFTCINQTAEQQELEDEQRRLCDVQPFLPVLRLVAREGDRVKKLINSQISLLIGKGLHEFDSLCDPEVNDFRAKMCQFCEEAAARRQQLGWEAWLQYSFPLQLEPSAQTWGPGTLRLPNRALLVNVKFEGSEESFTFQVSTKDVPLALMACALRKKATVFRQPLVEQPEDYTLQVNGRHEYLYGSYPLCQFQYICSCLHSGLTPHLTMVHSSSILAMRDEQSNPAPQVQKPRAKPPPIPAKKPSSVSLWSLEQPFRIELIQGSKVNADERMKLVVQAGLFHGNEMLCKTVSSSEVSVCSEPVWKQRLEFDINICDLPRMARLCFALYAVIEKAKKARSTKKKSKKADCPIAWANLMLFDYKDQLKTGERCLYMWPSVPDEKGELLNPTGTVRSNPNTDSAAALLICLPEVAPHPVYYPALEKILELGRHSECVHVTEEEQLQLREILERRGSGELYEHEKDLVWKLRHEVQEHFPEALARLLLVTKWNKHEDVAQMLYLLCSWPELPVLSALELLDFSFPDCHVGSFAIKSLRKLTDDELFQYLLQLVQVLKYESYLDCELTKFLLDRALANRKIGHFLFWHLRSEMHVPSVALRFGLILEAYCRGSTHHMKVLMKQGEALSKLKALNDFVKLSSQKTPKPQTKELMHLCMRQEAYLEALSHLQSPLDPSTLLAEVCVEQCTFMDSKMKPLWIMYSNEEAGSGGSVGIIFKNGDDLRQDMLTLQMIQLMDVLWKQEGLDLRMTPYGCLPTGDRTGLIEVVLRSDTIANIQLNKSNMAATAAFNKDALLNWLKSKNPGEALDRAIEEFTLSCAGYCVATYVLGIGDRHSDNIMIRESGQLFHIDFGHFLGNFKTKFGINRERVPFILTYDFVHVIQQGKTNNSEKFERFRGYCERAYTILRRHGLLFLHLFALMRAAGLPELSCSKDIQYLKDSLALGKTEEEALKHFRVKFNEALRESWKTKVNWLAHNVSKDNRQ
IC50 [1],IC50 [2],IC50 [3],IC50 [4],Structure (SMILES)
0.9 nM,–,–,–,Cc1nc(Nc2cccc(N3CCCC3=O)c2)sc1-c1cc2c(c(S(C)(=O)=O)c1)C(=O)N([C@@H](C)C1CC1)C2
–,80 nM,459 nM,2.2 nM,CC[C@H](C)N1Cc2cc(-c3sc(Nc4cccc(N5CCCOC5=O)n4)nc3C)cc(S(=O)(=O)NC)c2C1=O
